In the SangsterLogP compilation one finds logP data, which are given here for 19 compounds.

Consider `COCC(C)OCC(C)OC(C)=O` (centres undefined), for which the logP was determined as 0.8.

The compound `COCC(C)OCC(C)OCC(C)O` (centres undefined) gave a logP of 0.31.

For the compound `CCCOCC(C)O` (centres undefined), the logP came out at 0.62.

Compound `COCCCO` came in with a logP of -0.44.

In the case of `CC(O)COc1ccccc1` (centres undefined), the logP is 1.5.

As for `CCCOCC(C)OCC(C)O` (centres undefined), the lipophilicity (logP) came out at 0.99.

For `COC(C)COC(C)COC(C)CO` (centres undefined), the logP was 0.31.

Turning to `CCCCOC(C)COC(C)COC(C)CO` (centres undefined), the lipophilicity (logP) was found to be 1.9.

The compound `CCCCOCC(C)OCC(C)OCC(C)O` (centres undefined) gave a logP of 1.9.

Take `CCCCOCC(C)OCC(C)O` (centres undefined): the logP is 1.52.

With `CCCOC(C)CO` (centres undefined), the logP stood at 0.62.

For the compound `CCCOC(C)COC(C)CO` (centres undefined), the logP is 0.99.

As for `CC(CO)Oc1ccccc1` (centres undefined), the logP was 1.5.

With `CCCCOCC(C)O` (centres undefined), the logP was found to be 1.15.

`COC(C)COC(C)CO` (centres undefined): the logP was -0.06.

`COC(C)COC(C)=O` (centres undefined): the lipophilicity (logP) came to 0.43.

`CCCCOC(C)CO` (centres undefined) displayed a logP of 1.15.

In turn, `COC(C)COC(C)COC(C)=O` (centres undefined) returned a lipophilicity (logP) of 0.8.

`COCC(C)O` (centres undefined): the lipophilicity (logP) is -0.44.
